Holding throughout (conditions): erythrocyte
Series [1] can be described thus: Drug uptake in human type-A RBC at 3.55 uM after 2 hrs by LC-MS analysis. The series is classed as ADME, cell-based.
A short description of series [2]: Drug uptake in human type-A erythrocytes infected with Plasmodium falciparum D6 at 3.55 uM after 2 hrs by LC-MS analysis. The series is classed as ADME, cell-based.
Series [3] in a line: Toxicity in human type-A RBC assessed as hematocrit at 3.55 uM after 2 hrs. The series is classed as cell-based.

Structures are written as SMILES.

Take `C[C@@H]1CC[C@H]2[C@@H](CCCc3ccc(O)cc3)C(=O)O[C@@H]3O[C@]4(C)CC[C@@H]1[C@]32OO4.Cl`: the Drug uptake in series [1] is 39.01%; in series [2], 63.09%. Besides, the Activity in series [3] is 33%.

Regarding `C[C@@H]1CC[C@H]2[C@@H](CCCc3cc(C(F)(F)F)cc(C(F)(F)F)c3)C(=O)O[C@@H]3O[C@]4(C)CC[C@@H]1[C@]32OO4`, the values for the Drug uptake in series [1] and in series [2] were 41.07% and 72.09%, respectively. Also, in series [3], the Activity was found to be 33%.

Turning to `C[C@@H]1CC[C@H]2[C@@H](CCCc3cc(F)cc(F)c3)CO[C@@H]3O[C@]4(C)CC[C@@H]1[C@]32OO4`, the Drug uptake in series [1] is 40.01%; in series [2], 70.91%. Moreover, the Activity in series [3] came to 33%.

On to `C[C@@H]1[C@@H](OC(=O)NC2CC2c2ccccc2)C[C@H]2[C@@H](C)C(=O)O[C@@H]3O[C@]4(C)CC[C@@H]1[C@]32OO4` (some centres undefined), for which the Drug uptake amounted to 32.31% in series [1] and 51.63% in series [2]. Besides, the Activity in series [3] was 33%.

In the case of `C[C@@H]1[C@@H](OC(=O)Nc2cccc3ccccc23)C[C@H]2[C@@H](C)C(=O)O[C@@H]3O[C@]4(C)CC[C@@H]1[C@]32OO4`, the Drug uptake is given as 32.63% in series [1] and 51.68% in series [2]. Moreover, in series [3], the Activity came to 33%.

Consider `C[C@@H]1CC[C@H]2CC(=O)N(CCc3ccccc3)[C@@H]3O[C@]4(C)CC[C@@H]1[C@@]23OO4`, for which the figures for the Drug uptake in series [1] and in series [2] were 38.43% and 61.8%, respectively. Further, in series [3], the Activity is 33%.

Regarding `C[C@@H]1CC[C@H]2[C@@H](CCCc3ccc(S(C)(=O)=O)cc3)C(=O)O[C@@H]3O[C@]4(C)CC[C@@H]1[C@]32OO4`, the Drug uptake in series [1] amounted to 38.53%; in series [2], 61.9%. Further, the Activity in series [3] stood at 33%.

`C[C@@H]1CC[C@H]2[C@@H](CN3C(=O)CSC3=O)C(=O)O[C@@H]3O[C@]4(C)CC[C@@H]1[C@]32OO4`: the Drug uptake stood at 33.94% in series [1] and 57.69% in series [2]. Further, in series [3], the Activity worked out at 33%.

Regarding `C[C@@H]1CC[C@H]2[C@@H](CCCc3ccc(N(C)C)cc3)C(=O)O[C@@H]3O[C@]4(C)CC[C@@H]1[C@]32OO4.Cl`, the Drug uptake in series [1] came to 32.82%; in series [2], 51.92%. In addition, the Activity in series [3] is recorded as 33%.

Consider `C[C@@H]1[C@@H](O)C[C@H]2[C@@H](C)C(=O)O[C@@H]3O[C@]4(C)CC[C@@H]1[C@]32OO4`, for which the Drug uptake in series [1] worked out at 33.1%; in series [2], 53.9%. Moreover, the Activity in series [3] is recorded as 33%.

On to `C[C@@H]1CC[C@H]2CC(=O)O[C@@H]3O[C@]4(CCc5ccccc5)CC[C@@H]1[C@@]23OO4`, for which the Drug uptake in series [1] amounted to 38.96%; in series [2], 62.34%. In addition, in series [3], the Activity amounted to 33%.

As to `C[C@@H]1CC[C@H]2CC(=O)O[C@@H]3O[C@]4(CC(=O)O)CC[C@@H]1[C@@]23OO4`, the Drug uptake in series [1] was found to be 34.03%; in series [2], 54.51%. Also, in series [3], the Activity worked out at 33%.

As for `C[C@H]1C(=O)O[C@@H]2O[C@@]3(C)CC[C@@H]4[C@@]2(OO3)[C@H]1CC[C@]4(C)O`, the Drug uptake in series [1] is 32.99%; in series [2], 53.89%. Further, the Activity in series [3] is 33%.

Consider `CCCCCCCCCCCCCC[C@H]1C(=O)O[C@@H]2O[C@]3(C)CC[C@H]4[C@H](C)CC[C@@H]1[C@@]24O3`, for which the values for the Drug uptake in series [1] and in series [2] were 45.09% and 73%, respectively. In series [3], the Activity was 33%.

`CC(C)CN1C(=O)C[C@@H]2CC[C@@H](C)[C@@H]3CC[C@]4(C)OO[C@@]23[C@H]1O4`: the Drug uptake in series [1] is 35.17%; in series [2], 61.51%. Moreover, the Activity in series [3] was determined as 33%.

With `C[C@@H]1CC[C@H]2[C@@H](CC(=O)O)C(=O)O[C@@H]3O[C@]4(C)CC[C@@H]1[C@]32OO4`, the Drug uptake in series [1] is on record as 33.92%; in series [2] it was 54.23%. Moreover, the Activity in series [3] was 33%.

With `C[C@@H]1CC[C@H]2[C@@H](CCCc3cc(C(F)(F)F)cc(C(F)(F)F)c3)CO[C@@H]3O[C@]4(C)CC[C@@H]1[C@]32OO4`, the Drug uptake was 42.11% in series [1] and 72% in series [2]. For the same compound, the Activity in series [3] worked out at 33%.

For `C[C@@H]1CC[C@H]2[C@@H](CN3C(=O)CCC3=O)C(=O)O[C@@H]3O[C@]4(C)CC[C@@H]1[C@]32OO4`, the Drug uptake stood at 36.57% in series [1] and 66.06% in series [2]. Moreover, the Activity in series [3] amounted to 33%.

Regarding `CCCC[C@H]1C(=O)O[C@@H]2O[C@]3(CC)CC[C@H]4[C@H](C)CC[C@@H]1[C@@]24OO3`, the Drug uptake is recorded as 39.11% in series [1] and 62.5% in series [2]. For the same compound, in series [3], the Activity was 33%.

As to `C[C@@H]1CC[C@H]2[C@@H](CCCc3cc(C(F)(F)F)cc(C(F)(F)F)c3)[C@H](O)O[C@@H]3O[C@]4(C)CC[C@@H]1[C@]32OO4`, the Drug uptake in series [1] was 40.43%; in series [2], 71.76%. The Activity in series [3] came to 33%.

As to `C[C@@H]1CC[C@H]2[C@@H](CCCc3cccc(Cl)c3)[C@H](O)O[C@@H]3O[C@]4(C)CC[C@@H]1[C@]32OO4`, the Drug uptake in series [1] was found to be 40.13%; in series [2], 71.21%. Further, in series [3], the Activity is recorded as 33%.

With `C[C@@H]1[C@@H](OC(=O)Nc2ccccc2)C[C@H]2[C@@H](C)C(=O)O[C@@H]3O[C@]4(C)CC[C@@H]1[C@]32OO4`, the values for the Drug uptake in series [1] and in series [2] were 32.18% and 51.04%, respectively. Also, the Activity in series [3] came out at 33%.

`C[C@@H]1CC[C@H]2[C@@H](C)C(=O)O[C@@H]3O[C@@]4(C)CC[C@@H]1[C@]32OO4` [ARTEMISININ]: the Drug uptake in series [1] is reported as 34.68%; in series [2] it was 61.07%. In series [3], the Activity amounted to 33%.

For the origin of these results see ChEMBL document CHEMBL1155243, “In vitro erythrocytic uptake studies of artemisinin and selected derivatives using LC-MS and 2D-QSAR analysis of uptake in parasitized erythrocytes” (Bioorg Med Chem, 2009).
